# Assay results taken from patent US20040109905A1, “Method and composition of anthocyanin-rich berry extracts that prevents or inhibits angiogenesis and helicobacter pylori and acts as a powerful antioxidant that provides various health benefits” (priority 2002, published 2004).
# Test system: H2O2-induced expression of VEGF
# Test: H2O2-induced VEGF expression in HaCaT keratinocytes (ELISA)
# Assay type: cell-based, human
# Details: for VEGF: HaCaT cells, FA 200 nM, catechin 100 nM, rutin 1 μM, α-tocopherol 10 μM for 12 hours, then H2O2 150 μM for 12 hours, Mean±SD of three experiments; for effect on H2O2 (oxidant)-inducible VEGF expression, in words: human keratinocytes
# Method: The cells used for the test were immortalized HaCaT human keratinocytes grown in Dulbecco's modified Eagle's medium (provided by Life Technologies of Gaithersburg, Md.) and supplemented with 10% fetal bovine serum, 100 U/mL penicillin and 100 μg/mL streptomycin.
# Solutions incorporating berry extracts or GSPE were prepared fresh in dimethyl sulfoxide at concentrations such that the final concentration of the solvent in cell suspension never exceeded 0.1% prior to cell treatment, the DMSO solutions were passed through a […] filter for sterilization. Respective controls were treated with equal volumes of dimethyl sulfoxide. The test cells were pretreated with the berry solutions.
# Test cells were seeded onto multiple well culture-plates. After 24 hours of growth at 80% confluency, the cells were synchronized by culturing them in a serum-deprived medium for 12 hours. Following the synchronization, the cells were treated with H2O2 or TNFα. The berry treatment protocols are described in the legends for Tables 2 through 4 below. A serum-free medium was selected to avoid any possible interaction between the serum components and H2O2. The VEGF level in the medium was determined using a commercially available ELISA kit, marketed by R and D systems of Minneapolis, Minn.
# (§1) HaCaT cells were seeded at density 0.45×10^6/well/3 ml. After 24 hr, growth media was chanced to serum free RPMI and berry samples (50 μg/ml) or GSPE (25 μg/ml) were added. After 12 hours, cells were challenged with H2O2 (150 μM). After 12 hours of activation with H2O2, media was collected for ELISA. *p<0.05, higher in response to H2O2 treatment; *lower compared to H2O2 treated cells. Mean±SD of three experiments.
# as §1, with “and either pure flavonoids ([…], FA 200 nM; catechin, Cat 100 nM, ruti, rut 1 μM) at concentrations observed in” for “and”, “samples” for “samples (50 μg/ml)”, “a α-tocopherol (10 μM as reference antioxidant)” for “GSPE (25 μg/ml)”
Compound,VEGF [pg/mL],"effect on H2O2 (oxidant)-inducible VEGF expression, in words"
COc1cc(/C=C/C(=O)O)ccc1O [Ferrulic Acid],319.19 ± 21.05,suppress oxidant-inducible VEGF expression to some degree
Cc1c(C)c2c(c(C)c1O)CC[C@@](C)(CCC[C@H](C)CCC[C@H](C)CCCC(C)C)O2 [α-tocopherol],397.10 ± 64.91,did not influence inducible VEGF expression
Catechin,285.89 ± 51.13,suppress oxidant-inducible VEGF expression to some degree
C[C@@H]1O[C@@H](OC[C@H]2O[C@@H](Oc3c(-c4ccc(O)c(O)c4)oc4cc(O)cc(O)c4c3=O)[C@H](O)[C@@H](O)[C@@H]2O)[C@H](O)[C@H](O)[C@H]1O [Rutin],209.06 ± 59.28,–
